# Results reported in patent publication US6518290B1, “Substituted oxazoles and thiazoles derivatives as HPPAr alpha activators” (priority 1999, dated 2003).
# Key:
# human PPAR delta = molecular target: T1, human PPAR delta (Homo sapiens, UniProt Q03181); assay: PPAR transient transfection (transactivation) assay in CV-1 cells, PPAR delta; format: cell-based; settings: PPAR LBD-GAL4 chimera, SPAP reporter, 24 h with compound, read-out: human δEC50
# T1 construct: expressed in transfected cells; host or cells: CV-1 cells
# T1 sequence (Q03181 211-439 limits assumed): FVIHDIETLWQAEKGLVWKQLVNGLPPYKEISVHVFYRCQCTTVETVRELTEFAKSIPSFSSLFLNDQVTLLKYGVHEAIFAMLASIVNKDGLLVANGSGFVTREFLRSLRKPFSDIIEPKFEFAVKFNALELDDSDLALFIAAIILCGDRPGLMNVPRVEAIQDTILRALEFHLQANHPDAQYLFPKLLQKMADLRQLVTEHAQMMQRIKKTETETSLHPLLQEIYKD
# From the text: (§1) Compounds were screened for functional potency in transient transfection assays in CV-1 cells for their ability to activate the PPAR subtypes (transactivation assay). A previously established chimeric receptor system was utilized to allow comparison of the relative transcriptional activity of the receptor subtypes on the same target gene and to prevent endogenous receptor activation from complicating the interpretation of results. See, for example, Lehmann, J. M.; Moore, L. B.; Smith-Oliver, T. A.; Wilkison, W. O.; Willson, T. M.; Kliewer, S. A., An antidiabetic thiazolidinedione is a high affinity ligand for peroxisome proliferator-activated receptor γ (PPARγ), J. Biol. Chem., 1995, 270, 12953-6. The ligand binding domains for murine and human PPAR alpha, PPAR gamma, and PPAR delta were each fused to the yeast transcription factor GAL4 DNA binding domain. CV-1 cells were transiently transfected with expression vectors for the respective PPAR chimera along with a reporter construct containing five copies of the GAL4 DNA binding site driving expression of secreted placental alkaline phosphatase (SPAP) and β-galactosidase. After 16 h, the medium was exchanged to DME medium supplemented with 10% delipidated fetal calf serum and the test compound at the appropriate concentration. After an additional 24 h, cell extracts were prepared and assayed for alkaline phosphatase and β-galactosidase activity. Alkaline phosphatase activity was corrected for transfection efficiency using the β-galactosidase activity as an internal standard (see, for example, Kliewer, S. A., et. al. Cell 83, 813-819 (1995)). Rosiglitazone (BRL 49653) was used as a positive control in the hPPAR gamma assay. The positive control in the hPPAR alpha assays was 2-(2-methyl-3-[3-{3-(4-cyclohexylamino)-[6-(4-fluorophenylpiperazin-1-yl)][1,3,5]triazin-2-ylamino}propyl]phenylthio)-2-methylpropionic acid. The positive control for PPAR delta assays was 2-{2-methyl-4-[({4-methyl-2-{trifluoromethyl)phenyl]-1,3-thiazol-5-yl}methyl)sulfanyl]phenoxy}acetic acid.
# human PPAR alpha = molecular target: T2, human PPAR alpha (Homo sapiens, UniProt Q07869); assay: PPAR transient transfection (transactivation) assay in CV-1 cells, hPPAR alpha; format: cell-based; settings: PPAR LBD-GAL4 chimera, SPAP reporter, 24 h with compound, read-out: human αEC50
# T2 construct: expressed in transfected cells; host or cells: CV-1 cells
# T2 sequence (Q07869 239-466 limits assumed): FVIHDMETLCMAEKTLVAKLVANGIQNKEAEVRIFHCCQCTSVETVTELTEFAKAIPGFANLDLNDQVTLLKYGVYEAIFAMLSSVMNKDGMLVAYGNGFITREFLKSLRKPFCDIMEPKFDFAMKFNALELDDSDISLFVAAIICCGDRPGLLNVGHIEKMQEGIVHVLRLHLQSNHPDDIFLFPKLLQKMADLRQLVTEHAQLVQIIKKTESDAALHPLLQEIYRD
# From the text: as §1, with “Alkaline phosphatase activity was corrected for transfection efficiency using the β-galactosidase activity as an internal standard (see, for example, Kliewer, S. A., et. al. Cell 83, 813-819 (1995)).” left out
# human PPAR gamma = molecular target: T3, human PPAR gamma (Homo sapiens, UniProt P37231); assay: PPAR transient transfection (transactivation) assay in CV-1 cells, hPPAR gamma; format: cell-based; settings: PPAR LBD-GAL4 chimera, SPAP reporter, 24 h with compound, read-out: human γEC50
# T3 construct: expressed in transfected cells; host or cells: CV-1 cells
# T3 sequence (P37231 238-503 limits assumed): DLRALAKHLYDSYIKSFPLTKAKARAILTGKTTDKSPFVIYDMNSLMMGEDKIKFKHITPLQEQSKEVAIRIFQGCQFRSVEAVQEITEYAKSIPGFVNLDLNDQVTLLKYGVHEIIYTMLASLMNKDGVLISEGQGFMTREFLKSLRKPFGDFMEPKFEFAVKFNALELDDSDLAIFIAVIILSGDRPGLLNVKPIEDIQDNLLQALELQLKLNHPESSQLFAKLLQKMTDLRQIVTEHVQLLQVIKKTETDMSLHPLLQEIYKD
# From the text: as §1
EC50 (human PPAR delta),EC50 (human PPAR alpha),melting point,EC50 (human PPAR gamma),SMILES
≥ 10000 nM,44 nM,159 °C,≥ 10000 nM,"Cc1nc(-c2ccc(F)cc2)sc1C(=O)NCc1ccc(OC(C)(C)C(=O)O)cc1 [Example 31, 2-Methyl-2-[4-{[(4-methyl-2-[4-fluorophenyl]-thiazol-5-ylcarbonyl)amino]methyl}phenoxy]propionic Acid]"
1000 nM,10 nM,,≥ 10000 nM,"COc1cc(CNC(=O)c2sc(-c3ccc(C(F)(F)F)cc3)nc2C)ccc1OC(C)(C)C(=O)O [Example 49, 2-Methyl-2-[2-methoxy-4-{[(4-methyl-2-[4-trifluoromethylphenyl]-thiazol-5-ylcarbonyl)amino]methyl}phenoxy]propionic Acid]"
